Measurements: US20020173505A1, “Medicament” (priority 1999, published 2002)

Experiments:
[1] = tested on: human in vitro preparations (airway smooth muscle); experiment: spontaneous tone in human in vitro airway preparations; conditions: for nature of the relaxation of spontaneous tone (transient or persistent): human in vitro preparations
Procedure: (§1) The examinations of the spontaneous tone were performed in accordance with the methods disclosed in the thesis “Regulation of spontaneous tone in guinea pig trachea” by S.Skogvall, Department of Physiological Sci- ences, Lund University, 1999, which is incorporated herein by reference. As evidenced by these examinations, the airways normally display a highly regular type of oscillating tone if exposed to physiological conditions, and the oscillating tone can be reversibly affected by administration of various substances- When the epithelium is removed, the preparations instead display a strong, smooth type of tone.
Similar experiments have also been performed on human in vitro preparations, from patients undergoing lobecotomy or pulmectomy due to lung cancer.
Human airways are generally considered to display only a weak contraction when exposed to S-HT. Nevertheless, examinations on spontaneous tone on human in vitro preparations have shown that 5-HT indeed has a contractile component also in this tissue. However, this contraction takes a longer time to develop than in guinea pig and the contractile effect is seen as a termination of the relaxation, rather than an increase of tone from the baseline. In guinea pig trachea, the contraction reaches a maximum after approximately 10 min, and this is followed by a considerable reduction of tone. However, human preparations instead induce a maximum relaxing effect after 5-10 min, which disappears gradually during the following 30-45 min (see FIG. 1).

[2] = tested on: denuded airway smooth muscle preparations from the guinea-pig; experiment: spontaneous tone of denuded guinea-pig airway smooth muscle preparations
Excerpt: The subject-matter of the present invention was inter alia deduced from animal experiments, where a specific behavior of the airway smooth muscle called “spontaneous tone” was examined. The spontaneous tone, which involves a spontaneous continuous contraction in the airway smooth muscle, was studied due to a suspicion that detective regulation of the spontaneous tone could be an important cause of the bronchoconstriction observed in asthmatic patients.
as §1
A contractile effect of serotonin on airway smooth muscle has been reported in e.g. SkQgvall, S., Korsgren, M-, Grampp, W., J. Appl. Phys., 86:789-798, 1999. […] The spontaneous tone returned to approximately its normal level when the preparations were again exposed to control conditions.

SMILES: NCCc1c[nH]c2ccc(O)cc12 [serotonin, 3-(P-aminoethyl)-5-hydroxyindole]
- effect on spontaneous tone ([1]; 1 μM, tissue from patients undergoing lobectomy or pulmectomy): significant relaxation
- nature of the relaxation of spontaneous tone (transient or persistent) ([1]; FIG. 1): transient relaxation
- time over which the relaxing effect gradually disappears after the maximum ([1]; human preparations, FIG. 1): 30 to 45 min
- time to maximum relaxing effect ([1]; human preparations, FIG. 1): 5 to 10 min
- average force level of spontaneous tone ([2]; 1 μM added, denuded preparations with strong, smooth spontaneous tone): increased significantly
- spontaneous tone, level relative to force in control (drug-free) conditions ([2]; 10 μM added, denuded preparations): about half
- time to maximum contraction ([2]; guinea pig trachea): approximately 10 min

SMILES: NCCc1c[nH]c2ccc(C(N)=O)cc12 [5-carboxiamidotryptamine, 5-carboxamidotryptamine]
- nature of the relaxation of spontaneous tone (transient or persistent) ([1]; FIG. 1): persistent and not transient

SMILES: COc1cc(N)c(Cl)cc1C(=O)NC[C@@H]1CCN2CCC[C@@H]12 [SC 53116, 4-amino-5-chloro-N-[[lS, 7aS)-hexahydro-1H-pyrrolizin-l-yl]methyll-2-methoxy-benzamide]
- nature of the relaxation of spontaneous tone (transient or persistent) ([1]; FIG. 1): persistent and not transient
